Results reported in article PMC3756528 (Biochemistry, 2013).

Tests used:
[1] = target: T1, RsTSPO (Cereibacter sphaeroides, UniProt Q9RFC8); assay: Tryptophan fluorescence quenching binding assay, purified wild-type RsTSPO; parameters: species or system Rhodobacter sphaeroides; conditions: for quenching of the tryptophan fluorescence: compared to that of PpIX
T1 sequence (Q9RFC8 1-158): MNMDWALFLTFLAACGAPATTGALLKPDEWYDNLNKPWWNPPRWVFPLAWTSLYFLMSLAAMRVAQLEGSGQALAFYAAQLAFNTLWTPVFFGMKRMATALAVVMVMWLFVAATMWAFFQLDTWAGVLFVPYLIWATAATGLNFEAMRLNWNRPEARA

[2] = target: T2, RsTSPOW38C (Cereibacter sphaeroides, UniProt Q9RFC8, W38C); assay: Tryptophan fluorescence quenching binding assay, purified RsTSPOW38C mutant; parameters: species or system Rhodobacter sphaeroides; conditions: for decrease in binding affinity by the W38C mutation: RsTSPOW38C versus wild-type RsTSPO
T2 sequence (Q9RFC8 1-158 W38C): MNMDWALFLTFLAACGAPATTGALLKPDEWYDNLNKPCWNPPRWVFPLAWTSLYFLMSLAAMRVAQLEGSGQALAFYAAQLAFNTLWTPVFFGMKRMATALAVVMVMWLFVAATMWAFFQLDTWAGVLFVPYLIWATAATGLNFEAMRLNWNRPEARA

[3] = target: T1, RsTSPO; conditions: cited from earlier work
[4] = target: T1, RsTSPO; assay: Competition binding assay of PpIX, PK11195 and cholesterol with purified RsTSPO; parameters: species or system Rhodobacter sphaeroides
[5] = target: the molecule itself; assay: SEC

NCC(=O)CCC(=O)O [ALA, δ-aminolevulinic acid]
quenching of the tryptophan fluorescence [1]: only a small quenching

CC(C)CCC[C@@H](C)[C@H]1CC[C@H]2[C@@H]3CC=C4C[C@@H](O)CC[C@]4(C)[C@H]3CC[C@]12C [Cholesterol]
Kd ([1]; Kapp to RsTSPO, estimated from half-maximal quenching): ~80 µM
Kd ([2]; Kapp to RsTSPOW38C, estimated from half-maximal quenching): ~200 µM

CCC(C)N(C)C(=O)c1cc2ccccc2c(-c2ccccc2Cl)n1 (stereo not drawn) [PK11195]
binding of PK11195 to wild-type RsTSPO [3]: no binding affinity above background
decrease in binding affinity by the W38C mutation [2]: 3 fold

C=CC1=C(C)c2cc3[nH]c(cc4nc(cc5[nH]c(cc1n2)c(C)c5CCC(=O)O)C(CCC(=O)O)=C4C)c(C)c3C=C [PpIX, Protoporphyrin IX]
maximal quenching of tryptophan fluorescence ([1]; Rs- and HsTSPO, 290 to 400 nm): ~100%
increase in the Kd of PpIX ([4]; RsTSPO preincubated with 20 μM PK11195): ~3 fold
increase in the Kd of PpIX ([4]; RsTSPO preincubated with 20 μM PK11195 and 50 μM cholesterol together): ~4 fold
decrease in binding affinity by the W38C mutation [2]: 6 fold

C[C@H](CCC(=O)O)[C@H]1CC[C@H]2[C@@H]3[C@@H](O)C[C@@H]4C[C@H](O)CC[C@]4(C)[C@H]3CC[C@]12C [ursodeoxycholate]
affinity for RsTSPO [1]: no detectable affinity
quenching of the tryptophan fluorescence [1]: only a small quenching

B1: RsTSPOW38C, W38C mutant of Translocator Protein 18 kDa from Rhodobacter sphaeroides (natural protein, UniProt Q9RFC8 1-158, looked up)
chain: MNMDWALFLTFLAACGAPATTGALLKPDEWYDNLNKPCWNPPRWVFPLAWTSLYFLMSLAAMRVAQLEGSGQALAFYAAQLAFNTLWTPVFFGMKRMATALAVVMVMWLFVAATMWAFFQLDTWAGVLFVPYLIWATAATGLNFEAMRLNWNRPEARA
binding result [5]: binds
